{"source": "patent US20070141637A1", "about": "“Marker for fenestrae” (priority 2004, published 2007)", "key": {"[1]": {"test_system": "Py4.1 cells", "experiment": "Subtractive 2D-gel analysis of plasma membranes, latrunculin-induced versus control cells", "format": "cell-based, mouse", "conditions": "Py4.1 plasma membranes, Progenesis Software", "description": "In one embodiment the method of identifying components of fenestrae comprises the step of Subtractive 2D-gel electrophoresis analysis. Sufficient material was pooled to generate one batch of triplicate gels for vehicle-induced and un-induced Py4.1 cells, and three sets of triplicate gels for untreated, vehicle-induced, and induced bEND5 cells (FIG. 6 and FIG. 13). All gels per cell type were analyzed collectively using ProGenesis® software (Prolific, Inc. Newark, Calif.) to obtain fold differences between the staining intensities of spots in the induced and the uninduced samples and p-values for those differences using the Students t-test (FIG. 7). In the first round of analysis, spots that qualified for one or more of the following criteria were selected: a) fold increase in staining intensity greater than 2 in the induced sample, b) p-value less than 0.05 for any fold increase, c) spot being unique in induced sample. A summary of all the spots selected for mass spectrometry, with their accompanying fold differences and p-values is shown in FIG. 15.\nMethods for inducing fenestrae formation in endothelial cells are described in U.S. Provisional Patent No. 60/627,981, which is hereby incorporated by reference in its entirety. Coverslips and dishes were coated with 1% gelatin (Sigma) solution in PBS for 30 minutes at room temperature. […]"}, "[2]": {"test_system": "bEND5 and Py4.1 cells", "experiment": "Western blotting of candidate proteins in plasma membranes of latrunculin-induced versus control cells", "format": "cell-based, mouse", "conditions": "LPM versus CPM, equal amounts of protein", "description": "To confirm the findings of the subtractive proteomic analysis, immunoblotting on the relevant fractions was performed with antibodies to candidate proteins. By comparing equal amounts of protein in the two conditions, change in the protein levels of cofilin, alpha-enolase, radixin, moesin, annexin II, and hnRNP K was evaluated (FIG. 9A, 9B).\nMethods for inducing fenestrae formation in endothelial cells are described in U.S. Provisional Patent No. 60/627,981, which is hereby incorporated by reference in its entirety. Coverslips and dishes were coated with 1% gelatin (Sigma) solution in PBS for 30 minutes at room temperature. Endothelial cells were seeded overnight at a density equivalent to 1.5×10^6 cells per 100 mm dish. Cultures were induced with Cytochalasin B (Sigma) at 10 μM for 2 hours, with Latrunculin A (Molecular Probes) at 2.5 μM for 3 hours, or with a combination of recombinant mouse 75 ng/ml VEGF (R&D systems) for 6-72 hours and 10 μM Cytochalasin B for 2 hours. Cells were processed for biochemistry or morphology immediately after the end of the induction.\nAll steps in the procedure were performed on ice or in centrifuges pre-cooled to 4° C. Cells grown on 150 mm dishes were washed twice with PBS containing calcium and magnesium (Invitrogen), and once with coating buffer (20 mM MES, 135 mM NaCl, 0.5 mM CaCl2, 1 mM MgCl2, pH 5.5). […]"}}}
{"smiles": "C/C1=C/C(=O)O[C@@H]2C[C@@H](CC[C@H](C)/C=C\\C=C\\CC1)O[C@@](O)([C@@H]1CSC(=O)N1)C2", "note": "[latrunculin, Latrunculin A]", "values": [{"measurement": "spot 659 intensity, latrunculin-induced versus control samples", "setting": "[1]", "value": 1.772, "unit": "fold"}, {"measurement": "spot 401 intensity, latrunculin-induced versus control samples", "setting": "[1]; part of a train of spots (phosphorylation states)", "value": 3.8, "unit": "fold"}, {"measurement": "enrichment of phosphorylated moesin, hnRNP K, cofilin and alpha-enolase in plasma membranes", "setting": "[2]", "value": "Enrichment in induced cells is confirmed"}]}
